What was measured:
[1] = tested on: YAP/TAZ; experiment: MRCS-Luc luciferase activity on substrates with different stiffness; type: cell-based, human; conditions: compared to uninhibited cells on stiff, activating substrates
Protocol: FIG. 18 graphically illustrates data showing that MRCS-luciferase (MRCS-Luc) is stiffness specific in vitro. MRCS-Luc was seeded on substrates with different stiffness. […] D-Luciferin: 150 μg/ml in MSC growth medium. *P<0.05, **P<0.01.
The MRCS with engineered reporter-Luc construct (MRCS-Luc) was also found to be stiffness specific in vitro, similar to MRCS-eGFP (FIG. 18). […] C-MSC constitutively expressing luciferase served as a positive control, and N-MSC with no luciferase activity served as a negative control.

[2] = tested on: YAP/TAZ; experiment: MRCS-eGFP on firm substrate treated with mechano-sensing inhibitors (immunofluorescence); type: cell-based, human; conditions: firm (~40 kPa) poly-acrylamide; blebbistatin (5004 [sic]), 10 μM ML-7, 20 μM PF228
Protocol: FIG. 16A-L illustrate images of exemplary MRCS-eGFP showing that MRCS is stiffness specific in vitro. MRCS was plated on firm (approximately 40 kPa) poly-acrylamide and treated with (FIG. 16A, FIG. 16D, FIG. 16G, FIG. 16J) […] blebbistatin and (FIG. 16B, E, FIG. 16H, FIG. 16K) 10 μM ML-7 (myosin light-chain kinase inhibitors) as well as (FIG. 16C, FIG. 16F, FIG. 16I, FIG. 16K) 20 μM PF228 (focal adhesion kinase inhibitor). […] Scale bar=50 μm.
MRCS-eGFP sensing was also shown to be reversibly stiffness-dependent (FIG. 16). Cells plated on stiff, activating substrate (approximately 40 kPa) were deactivated with the addition of blebbistatin and ML-7 (myosin light-chain kinase inhibitors) or PF228 (a focal adhesion kinase inhibitor). This was seen from the lack of GFP fluorescence (FIG. 16A-C) and from the localization of YAP/TAZ to the cytoplasm (FIG. 16D-F). Real-time RT-PCR was performed on the seeded MRCS-eGFP cells to quantify relative mRNA expression levels of eGFP and two downstream factors of YAP/TAZ, CTGF (Connective Tissue Growth Factor) and ANKRDI (ANKyrin Repeat Domain-containing protein 1) (FIG. 17). […] N-MSC plated on stiff substrate was a control.

[3] = tested on: YAP/TAZ; experiment: MRCS-CD on firm substrate treated with mechano-sensing inhibitors; type: cell-based, human; conditions: firm (~40 kPa) poly-acrylamide; 50 μM blebbistatin, 10 μM ML-7, 20 μM PF228
Protocol: FIG. 20 graphically illustrates data showing that MRCS-CD is stiffness specific in vitro based on stiffness inhibitor studies. MRCS was plated on firm (approximately 40 kPa) poly-acrylamide and treated with (A,D,G,J) 50 μM blebbistatin and (B,E,H,K) 10 μM ML-7 (myosin light-chain kinase inhibitors) as well as (C,F,I,K) 20 μM PF228 (focal adhesion kinase inhibitor). […] Scale bar=50 μm.
MRCS-CD sensing was also shown to be reversibly stiffness-dependent (FIG. 20). Cells plated on stiff, activating substrate (approximately 40 kPa) were deactivated with the addition of blebbistatin and ML-7 (myosin light-chain kinase inhibitors) or PF228 (a focal adhesion kinase inhibitor). This was seen from the lack of GFP fluorescence (FIG. 20A-C) and from the localization of YAP/TAZ to the cytoplasm (FIG. 20D-F).

[4] = cited from earlier work

| luciferase expression levels of MRCS-Luc with inhibitor [1] | cytosine deaminase (CD) of MRCS with inhibitor [3] | Molecule | YAP/TAZ localization in MRCS with inhibitor [2] | eGFP of MRCS with inhibitor [2] | YAP/TAZ localization in MRCS-CD with inhibitor [3] | plasma half-life [4] |
| --- | --- | --- | --- | --- | --- | --- |
| significantly lowered | turned off | O=S(=O)(c1cccc2c(I)cccc12)N1CCCNCC1 [ML-7] | in cytoplasm | turned off | in cytoplasm |  |
| significantly lowered | turned off | CS(=O)(=O)c1cccc(CNc2nc(Nc3ccc4c(c3)CCC(=O)N4)ncc2C(F)(F)F)c1 [PF228] | in cytoplasm | turned off | in cytoplasm |  |
| significantly lowered | turned off | Cc1ccc2c(c1)C(=O)C1(O)CCN(c3ccccc3)C1=N2 (stereo not shown) [blebbistatin] | in cytoplasm | turned off | in cytoplasm |  |
|  |  | E. coli beta-gal: E. coli beta-galactosidase reporter enzyme |  |  |  | less than 60 min |

From patent US20180298340A1, “SYSTEMS FOR DETECTING, MONITORING OR TREATING DISEASES OR CONDITIONS USING ENGINEERED CELLS AND METHODS FOR MAKING AND USING THEM” (The Regents of the University of California, priority 2015, published 2018)
